The results in this text go back to patent US9840498B2, “Substituted quinazolin-4-one derivatives” (NOVARTIS AG, priority 2013, dated 2017).

Molecules are shown by their SMILES.

Common to all, as to conditions: enzymatic assay
For one assay, the target named is PI3K gamma (Homo sapiens (Human), UniProt P48736). As to the kind of experiment: Biochemical assay for PI3Kgamma (Adapta TR-FRET format). From the text: (§1) For the enzymatic assays, the preparation of PI3K gene constructs, protein expression and purification for HTS are described in WO2012/004299. […] The TR-FRET Adapta™ Universal Kinase Assay Kit was purchased from Invitrogen Corporation (Carlsbad/CA, USA) (Cat. No. PV5099). The kit contains the following reagents: Adapta Eu-anti-ADP Antibody (Europium labeled anti-ADP antibody in HEPES buffered saline, Cat. No. PV5097), Alexa Fluor® 647-labeled ADP tracer (Alexa Fluor® 647-labeled ADP tracer in HEPES buffered saline, Cat. No. PV5098), proprietary TR-FRET dilution buffer pH 7.5 (Cat. No. PV3574). PIK3CD substrate Phosphatidylinositol was obtained from Invitrogen (vesicules consisting of 2 mM PI in 50 mM HEPES pH7.5; Cat. No. PV5371). PIK3CG substrate Phosphatidylinositol-4,5-bisphosphate (PIP(4,5)2 was obtained from Invitrogen (PIP2:PS large unilamellar vesicules consisting of 1 mM PI P2: 19 mM PS in 50 mM HEPES pH7.5, 3 mM MgCl2, 1 mM EGTA; Cat. No. PV5100). Time-Resolved Fluorescence Resonance Energy Transfer (TR-FRET) is a technology based on energy transfer between two adjacent dyes, from an excited electron in one dye (the donor) to an electron of an adjacent dye (the acceptor) through resonance, then released as a photon. This energy transfer is detected by an increase in the fluorescence emission of the acceptor, and a decrease in the fluorescence emission of the donor. TR-FRET assays for protein kinases use a long-lifetime lanthanide Terbium or Europium chelates as the donor species which overcome interference from compound autofluorescence or light scatter from precipitated compounds, by introducing a delay after excitation by a flashlamp excitation source. Results are often expressed as a ratio of the intensities of the acceptor and donor fluorophores. The ratiometric nature of such a value corrects for differences in assay volumes between wells, as well as corrects for quenching effects due to colored compounds. The Adapta™ assay can be divided into two phases: a kinase reaction phase and an ADP detection phase. In the kinase reaction phase, all kinase reaction components are added to the well and the reaction is allowed to incubate for a set period of time specific for each kinase. After the reaction, a detection solution of Eu-labeled anti-ADP antibody, Alexa Fluor® 647-labeled ADP tracer, and EDTA (to stop the kinase reaction) are added to the assay well. ADP formed by the kinase reaction will displace the Alexa Fluor® 647-labeled ADP tracer from the antibody, resulting in a decrease in TR-FRET signal. In the presence of an inhibitor, the amount of ADP formed by the kinase reaction is reduced, and the resulting intact antibody-tracer interaction maintains a high TR-FRET signal. In the Adapta™ assay, the donor (Europium-anti-ADP antibody) is excited at 340 nm and will transfer its energy to the acceptor (Alexa Fluor® 647-labeled ADP tracer). The emission from the Alexa Fluor® 647 can be monitored with a filter centered at 665 nm because it is located between the emission peaks of the donor, which is measured at 615/620 nm. 50 nL of compound dilutions were dispensed onto white 384-well small volume polystyrene plate as described in section 2.2. Then 5 μL of PI3Kgamma and PI3Kdelta and lipid substrate (PI or PIP2:PS) followed by 5 μL of ATP (final assay volume 10 μL) are incubated at RT. […] Reactions were stopped with 5 μL of a mixture of EDTA containing the Eu-labeled anti-ADP antibody and the Alexa Fluor® 647-labeled ADP tracer in TR-FRET dilution buffer (proprietary to IVG). Plates are read 15 to 60 mins later in a Synergy2 reader using an integration time of 0.4 seconds and a delay of 0.05 seconds. […] The control for the 0% inhibition was given by the solvent vehicle of the compounds (90% DMSO in H2O). Data are analyzed using Excel fit software or Graphpad Prism. EC50 values were derived by fitting a sigmoidal dose-response curve to a plot of assay readout over inhibitor concentration. […]
On the technique in general: In TR-FRET formats the signal depends on donor and acceptor labels being close together.

The target in a further assay is PI3K alpha (Homo sapiens (Human), UniProt P42336). As to the kind of experiment: Biochemical assay for PI3Kalpha (Kinase-Glo format). As to the method: 1.1 Generation of Gene Constructs, Protein Expression and Purification
For the enzymatic assays, the preparation of PI3K gene constructs, protein expression and purification for HTS are described in WO2012/004299.
1.2 Biochemical Assays for PI3Kalpha, PI3Kbeta (Kinase-Glo Format)
The kinase reaction is performed in a final volume of 50 μl per well of a half area COSTAR, 96 well plate. The final concentrations of ATP and phosphatidyl inositol in the assay are 5 μM and 6 μg/mL, respectively. The reaction is started by the addition of PI3 kinase, e.g. PI3 kinase α.
The components of the assay are added per well as follows: • 10 μl test compound in 5% DMSO per well in […]. • Total activity is determined by addition 10 μl of 5% vol/vol DMSO in the first 4 wells of column 1 and the last 4 wells of column 12. • The background is determined by addition of 10 μM control compound to the last 4 wells of column 1 and the first 4 wells of column 12. • 2 mL ‘Assay mix’ are prepared per plate: • 1.912 mL of HEPES assay buffer • 8.33 μl of 3 mM stock of ATP giving a final concentration of 5 μM per well • 1 μl of [^33P]ATP on the activity date giving 0.05 μCi per well • 30 μl of 1 mg/mL PI stock giving a final concentration of 6 μg/mL per well • 5 μl of 1 M stock MgCl2 giving a final concentration of 1 mM per well • 20 μl of the assay mix are added per well. • 2 mL ‘Enzyme mix’ are prepared per plate (x* μl PI3 kinase p110α in 2 mL of kinase buffer). The ‘Enzyme mix’ is kept on ice during addition to the assay plates. * The volume of enzyme is dependent on the enzymatic activity of the batch in use. • 20 μl ‘Enzyme mix’ are added/well to start the reaction. • The plate is then incubated at room temperature for 90 minutes. • The reaction is terminated by the addition of 50 μl WGA-SPA bead (wheat germ agglutinin-coated Scintillation Proximity Assay beads) suspension per well. • The assay plate is sealed using TopSeal-S (heat seal for polystyrene microplates, PerkinElmer LAS [Deutschland] GmbH, Rodgau, Germany) and incubated at room temperature for at least 60 minutes. • The assay plate is then centrifuged at 1500 rpm for 2 minutes using the Jouan bench top centrifuge (Jouan Inc., Nantes, France). • The assay plate is counted using a Packard TopCount, each well being counted for 20 seconds.
In a more preferred assay, the kinase reaction is performed in a final volume of 10 μl per well of a low volume non-binding CORNING, 384 well black plate (Cat. No. #3676). The final concentrations of ATP and phosphatidyl inositol (PI) in the assay are 1 μM and 10 μg/mL, respectively. The reaction is started by the addition of ATP.
The components of the assay are added per well as follows: […]
On the technique in general: Kinase-Glo measures the ATP left after a reaction by luminescence.

A further assay concerns the target PI3K delta (Homo sapiens (Human), UniProt O00329). Briefly: Biochemical assay for PI3Kdelta (Adapta TR-FRET format).
Source text: as §1

Chain of PI3K gamma (P48736 whole entry): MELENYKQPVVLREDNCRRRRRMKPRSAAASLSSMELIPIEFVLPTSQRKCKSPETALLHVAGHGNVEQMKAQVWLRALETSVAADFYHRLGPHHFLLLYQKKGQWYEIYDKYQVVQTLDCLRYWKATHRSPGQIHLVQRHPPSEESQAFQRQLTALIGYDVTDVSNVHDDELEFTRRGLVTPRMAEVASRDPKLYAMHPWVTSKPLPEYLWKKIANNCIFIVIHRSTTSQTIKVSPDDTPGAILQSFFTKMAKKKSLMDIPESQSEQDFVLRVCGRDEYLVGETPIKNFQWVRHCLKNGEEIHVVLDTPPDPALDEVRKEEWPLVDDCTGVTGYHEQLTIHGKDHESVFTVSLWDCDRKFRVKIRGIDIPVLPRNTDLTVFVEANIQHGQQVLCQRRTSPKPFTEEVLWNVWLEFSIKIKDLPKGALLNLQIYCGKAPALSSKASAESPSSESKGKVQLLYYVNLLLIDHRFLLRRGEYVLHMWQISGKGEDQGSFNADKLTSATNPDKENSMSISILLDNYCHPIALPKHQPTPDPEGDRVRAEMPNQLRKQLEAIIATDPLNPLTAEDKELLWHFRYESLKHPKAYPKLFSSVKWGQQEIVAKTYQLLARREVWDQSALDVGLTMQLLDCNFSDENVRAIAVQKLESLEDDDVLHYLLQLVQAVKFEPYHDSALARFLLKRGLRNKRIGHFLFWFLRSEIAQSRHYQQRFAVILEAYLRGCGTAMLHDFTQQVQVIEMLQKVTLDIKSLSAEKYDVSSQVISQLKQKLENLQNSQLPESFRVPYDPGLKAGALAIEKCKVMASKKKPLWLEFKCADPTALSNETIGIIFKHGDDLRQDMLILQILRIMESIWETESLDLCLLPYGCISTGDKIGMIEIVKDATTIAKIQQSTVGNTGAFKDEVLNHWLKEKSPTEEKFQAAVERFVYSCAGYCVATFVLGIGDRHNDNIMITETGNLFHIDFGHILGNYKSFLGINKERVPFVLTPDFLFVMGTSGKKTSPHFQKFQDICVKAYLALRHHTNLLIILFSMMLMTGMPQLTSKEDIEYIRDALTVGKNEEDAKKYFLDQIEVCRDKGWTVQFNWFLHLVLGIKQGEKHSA
Chain of PI3K delta (O00329 2-1044): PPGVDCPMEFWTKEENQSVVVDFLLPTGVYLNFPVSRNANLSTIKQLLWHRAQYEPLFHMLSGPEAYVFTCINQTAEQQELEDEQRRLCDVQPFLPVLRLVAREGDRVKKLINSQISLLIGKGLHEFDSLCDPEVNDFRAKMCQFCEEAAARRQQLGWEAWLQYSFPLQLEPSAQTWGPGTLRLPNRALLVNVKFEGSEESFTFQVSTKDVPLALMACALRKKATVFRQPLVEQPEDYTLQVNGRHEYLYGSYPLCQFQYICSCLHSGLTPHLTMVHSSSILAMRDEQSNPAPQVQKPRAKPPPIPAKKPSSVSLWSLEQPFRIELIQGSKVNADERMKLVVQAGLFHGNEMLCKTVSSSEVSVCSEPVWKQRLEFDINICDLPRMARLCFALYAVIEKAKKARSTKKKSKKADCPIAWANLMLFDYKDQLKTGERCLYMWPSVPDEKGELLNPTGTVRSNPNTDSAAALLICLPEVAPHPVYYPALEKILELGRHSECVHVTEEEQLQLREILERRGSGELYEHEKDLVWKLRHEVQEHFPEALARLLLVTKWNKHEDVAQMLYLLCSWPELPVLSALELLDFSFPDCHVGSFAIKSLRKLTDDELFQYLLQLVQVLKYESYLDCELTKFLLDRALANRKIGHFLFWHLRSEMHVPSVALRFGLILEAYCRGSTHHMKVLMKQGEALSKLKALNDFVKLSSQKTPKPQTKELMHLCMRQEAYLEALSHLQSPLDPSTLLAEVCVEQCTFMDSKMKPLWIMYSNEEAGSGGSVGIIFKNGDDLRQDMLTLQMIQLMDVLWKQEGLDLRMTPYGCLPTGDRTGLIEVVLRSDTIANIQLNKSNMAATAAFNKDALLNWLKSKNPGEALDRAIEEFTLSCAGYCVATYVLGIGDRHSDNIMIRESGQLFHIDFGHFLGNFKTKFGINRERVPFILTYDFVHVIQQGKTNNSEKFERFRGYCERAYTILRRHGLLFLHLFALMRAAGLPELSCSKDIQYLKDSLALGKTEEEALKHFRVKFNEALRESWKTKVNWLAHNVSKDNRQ
Chain of PI3K delta (P27986 461-568 partner): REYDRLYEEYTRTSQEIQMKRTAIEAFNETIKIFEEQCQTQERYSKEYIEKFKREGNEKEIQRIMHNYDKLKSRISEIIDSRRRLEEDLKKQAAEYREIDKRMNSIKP
Chain of PI3K alpha (P42336 21-1068): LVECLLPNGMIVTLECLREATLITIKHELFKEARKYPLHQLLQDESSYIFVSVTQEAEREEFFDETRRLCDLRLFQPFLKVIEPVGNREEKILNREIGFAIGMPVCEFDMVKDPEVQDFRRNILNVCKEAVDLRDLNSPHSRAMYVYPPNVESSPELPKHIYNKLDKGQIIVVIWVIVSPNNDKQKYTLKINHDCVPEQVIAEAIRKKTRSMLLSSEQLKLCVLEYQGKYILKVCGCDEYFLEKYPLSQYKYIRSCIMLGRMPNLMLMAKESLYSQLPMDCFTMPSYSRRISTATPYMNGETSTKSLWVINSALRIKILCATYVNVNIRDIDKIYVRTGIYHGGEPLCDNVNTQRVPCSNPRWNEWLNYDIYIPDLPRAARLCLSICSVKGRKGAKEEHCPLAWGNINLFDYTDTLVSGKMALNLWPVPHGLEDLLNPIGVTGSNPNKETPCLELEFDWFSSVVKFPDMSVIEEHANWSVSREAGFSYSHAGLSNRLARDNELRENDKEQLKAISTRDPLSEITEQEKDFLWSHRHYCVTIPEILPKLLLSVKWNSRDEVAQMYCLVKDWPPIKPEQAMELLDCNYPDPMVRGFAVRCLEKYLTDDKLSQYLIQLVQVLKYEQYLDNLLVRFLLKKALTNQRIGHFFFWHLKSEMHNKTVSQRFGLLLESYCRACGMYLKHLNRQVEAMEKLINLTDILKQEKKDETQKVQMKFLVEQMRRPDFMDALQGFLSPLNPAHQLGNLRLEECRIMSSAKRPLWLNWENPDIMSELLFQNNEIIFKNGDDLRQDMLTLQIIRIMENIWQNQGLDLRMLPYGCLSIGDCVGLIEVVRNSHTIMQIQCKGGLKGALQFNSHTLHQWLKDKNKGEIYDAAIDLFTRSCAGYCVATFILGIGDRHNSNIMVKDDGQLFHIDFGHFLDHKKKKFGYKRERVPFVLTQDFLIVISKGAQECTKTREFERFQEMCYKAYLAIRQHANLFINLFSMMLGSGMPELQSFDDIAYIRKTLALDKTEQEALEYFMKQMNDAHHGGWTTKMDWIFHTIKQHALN
Chain of PI3K alpha (P27986 461-568 partner): as the sequence (P27986 461-568 partner) above

A word on the IC50: it is the concentration that inhibits the measured activity by half. In the case of `Cc1nc(N)nc(N2C[C@@H](O)C[C@H]2c2nc3ccc(F)c(-c4cnn(C)c4)c3c(=O)n2-c2ccccc2)c1C#N` [Example 1, 2-Amino-4-((2S,4S)-2-(6-fluoro-5-(1-methyl-1H-pyrazol-4-yl)-4-oxo-3-phenyl-3,4-dihydroquinazolin-2-yl)-4-hydroxypyrrolidin-1-yl)-6-methylpyrimidine-5-carbonitrile], the values for the IC50 at PI3K gamma, against PI3K alpha and at PI3K delta were 28 nM, 74 nM and 8 nM, respectively.

Consider `Cn1cc(-c2cccc3nc([C@@H]4CCCN4c4ncnc(N)c4C#N)n(-c4ccccc4)c(=O)c23)cn1` [Example 2, (S)-4-Amino-6-(2-(5-(1-methyl-1H-pyrazol-4-yl)-4-oxo-3-phenyl-3,4-dihydroquinazolin-2-yl)pyrrolidin-1-yl)pyrimidine-5-carbonitrile], for which the IC50 on PI3K gamma amounted to 150 nM; at PI3K alpha, 1300 nM.

As to `COc1ncc(-c2cccc3nc([C@@H]4CCCN4c4ncnc(N)c4C#N)n(-c4ccccc4)c(=O)c23)cn1` [Example 3, (S)-4-Amino-6-(2-(5-(2-methoxypyrimidin-5-yl)-4-oxo-3-phenyl-3,4-dihydroquinazolin-2-yl)pyrrolidin-1-yl)pyrimidine-5-carbonitrile], the IC50 on PI3K gamma came out at 1200 nM; on PI3K alpha it was 1400 nM; on PI3K delta, 8 nM.

Consider `COc1ncc(-c2cccc3nc([C@@H]4CCCN4c4nc(N)nc(C)c4C#N)n(-c4ccccc4)c(=O)c23)cn1` [Example 4, (S)-2-Amino-4-(2-(5-(2-methoxypyrimidin-5-yl)-4-oxo-3-phenyl-3,4-dihydroquinazolin-2-yl)pyrrolidin-1-yl)-6-methylpyrimidine-5-carbonitrile], for which the IC50 was 82 nM on PI3K gamma, 320 nM on PI3K alpha and 6 nM on PI3K delta.

For `Cn1cc(-c2c(F)ccc3nc([C@@H]4CCCN4c4ncnc(N)c4C#N)n(-c4ccccc4)c(=O)c23)cn1` [Example 5, (S)-4-Amino-6-(2-(6-fluoro-5-(1-methyl-1H-pyrazol-4-yl)-4-oxo-3-phenyl-3,4-dihydroquinazolin-2-yl)pyrrolidin-1-yl)pyrimidine-5-carbonitrile], the results for the IC50 on PI3K gamma, against PI3K alpha and at PI3K delta were 85 nM, 230 nM and 4 nM, respectively.

Turning to `Cc1nc(N)nc(N2CCC[C@H]2c2nc3ccc(F)c(-c4cnn(C)c4)c3c(=O)n2-c2ccccc2)c1C#N` [Example 6, (S)-2-Amino-4-(2-(6-fluoro-5-(1-methyl-1H-pyrazol-4-yl)-4-oxo-3-phenyl-3,4-dihydroquinazolin-2-yl)pyrrolidin-1-yl)-6-methylpyrimidine-5-carbonitrile], the half-inhibitory concentration (IC50) at PI3K gamma was 56 nM; on PI3K alpha, 130 nM; at PI3K delta, 9 nM.

On to `COc1ncc(-c2c(F)ccc3nc([C@@H]4C[C@H](O)CN4c4nc(N)nc(C)c4C#N)n(-c4ccccc4)c(=O)c23)cn1` [Example 7, 2-Amino-4-((2S,4S)-2-(6-fluoro-5-(2-methoxypyrimidin-5-yl)-4-oxo-3-phenyl-3,4-dihydroquinazolin-2-yl)-4-hydroxypyrrolidin-1-yl)-6-methylpyrimidine-5-carbonitrile], for which the IC50 at PI3K gamma was found to be 110 nM; against PI3K alpha, 210 nM; on PI3K delta, 6 nM.

Consider `Cn1cc(-c2c(F)ccc3nc([C@@H]4C[C@H](O)CN4c4ncnc(N)c4C#N)n(-c4ccccc4)c(=O)c23)cn1` [Example 8, 4-Amino-6-((2S,4S)-2-(6-fluoro-5-(1-methyl-1H-pyrazol-4-yl)-4-oxo-3-phenyl-3,4-dihydroquinazolin-2-yl)-4-hydroxypyrrolidin-1-yl) pyrimidine-5-carbonitrile], for which the IC50 is 750 nM on PI3K gamma, 1100 nM against PI3K alpha and 14 nM at PI3K delta.

As for `COc1ncc(-c2c(F)ccc3nc([C@@H]4C[C@H](O)CN4c4nc(N)nc(C)c4C#N)n(-c4ccccc4)c(=O)c23)s1` [Example 9, 2-Amino-4-((2S,4S)-2-(6-fluoro-5-(2-methoxythiazol-5-yl)-4-oxo-3-phenyl-3,4-dihydroquinazolin-2-yl)-4-hydroxypyrrolidin-1-yl)-6-methylpyrimidine-5-carbonitrile], the figures for the IC50 on PI3K gamma, at PI3K alpha and at PI3K delta were 18 nM, 53 nM and 8 nM, respectively.

With `CO[C@H]1C[C@@H](c2nc3cccc(-c4cnn(C)c4)c3c(=O)n2-c2ccccc2)N(c2nc(N)nc(C)c2C#N)C1` [Example 10, 2-Amino-4-((2S,4S)-4-methoxy-2-(5-(1-methyl-1H-pyrazol-4-yl)-4-oxo-3-phenyl-3,4-dihydroquinazolin-2-yl)pyrrolidin-1-yl)-6-methylpyrimidine-5-carbonitrile], the IC50 at PI3K gamma came to 38 nM; against PI3K alpha, 1300 nM; on PI3K delta, 6 nM.

Turning to `CO[C@H]1C[C@@H](c2nc3cccc(-c4cnn(C)c4)c3c(=O)n2-c2ccccc2)N(c2nc(N)nc3[nH]cnc23)C1` [Example 11, 2-((2S,4S)-1-(2-Amino-9H-purin-6-yl)-4-methoxypyrrolidin-2-yl)-5-(1-methyl-1H-pyrazol-4-yl)-3-phenylquinazolin-4(3H)-one], the IC50 came to 230 nM at PI3K gamma, 2300 nM against PI3K alpha and 45 nM on PI3K delta.
